In patent US20050112615A1, “Genetic circuit inverting amplifier” (priority 2003, published 2005):

Tested on: E.coli strain DH5αZ1 transformed with input pBT plasmid and amplifier plasmid pAMP-1
Experiment: Output EGFP fluorescence of genetic circuit amplifier as a function of input IPTG concentration
Type: cell-based
Settings: 3 hours growth, corrected for cell density and background fluorescence
Text: A second bacterial plasmid, pBT (Stratagene, CA), was selected to produce the input. It releases monomer into the cellular environment, making CI available for the engineered circuit to use. It is a simple plasmid that controls transcription of cI with the PlacUV promoter. […] The pBT vector has an origin of replication derived from p15A, making it compatible with the circuit plasmid which has a different ColE1 origin of replication. Together, the plasmids constitute a cis-trans network, since the product of one plasmid (pBT) affects the outcome of gene expression on the second plasmid (pAMP-1).
The input pBT plasmid and the amplifier plasmid pAMP-1 gene were transformed into chemically competent E.coli strain DH5αZ1. This strain was selected because it produces LacI in abundance so as to permit effective use of pBT. Transformed cells were grown overnight at 37° C. in LB broth. Chloramphenicol was added at a concentration of 50 μg/mL and ampicillin was added at a concentration of 100 μg/mL.
The overnight culture was diluted 1:50 into fresh LB medium containing IPTG at the following concentrations: 0-20-200-2000 μM. These cells were allowed to grow for another 3 hours. The cells were then spun down and re-suspended in PBS. Fluorescence was then measured on a BMG Optima microplate fluorometer equipped with filters for GFP. Absorbance at 600 nm was also measured. Fluorescence was the corrected for cell density and background fluorescence. The result, presented in Table 1, indicates an output that decreases with increasing input. Observed non-linearity is likely due to low gain of chosen gain element.

CC(C)S[C@@H]1O[C@H](CO)[C@H](O)[C@H](O)[C@H]1O [IPTG, isopropyl-β-D-thiogalactopyranoside]
EGFP output fluorescence (IPTG 20 uM): 66263 arbitrary units
EGFP output fluorescence (IPTG 200 uM): 58338 arbitrary units
EGFP output fluorescence (IPTG 2000 uM): 44137 arbitrary units
